Measured values reported in ChEMBL document CHEMBL1133402, “Irreversible inhibition of type I dehydroquinase by substrates for type II dehydroquinase” (Bioorg Med Chem Lett, 2000).
pKi: −log10 of the molar value. Activity calls are given as the source filed them. The calls are words filed in the database; no cut-off is given here.

Experiments:
[1] = target: T1, 3-dehydroquinate dehydratase (Escherichia coli K-12) (UniProt P05194); test: kcat/Km value was determined
T1 sequence (whole entry): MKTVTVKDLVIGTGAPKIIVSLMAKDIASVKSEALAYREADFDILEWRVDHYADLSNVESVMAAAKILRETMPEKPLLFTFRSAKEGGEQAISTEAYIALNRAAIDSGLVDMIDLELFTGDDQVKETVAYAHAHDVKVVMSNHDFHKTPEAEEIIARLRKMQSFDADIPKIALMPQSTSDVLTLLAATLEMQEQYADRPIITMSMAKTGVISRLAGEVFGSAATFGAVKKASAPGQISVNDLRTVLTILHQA

[2] = target: T1, 3-dehydroquinate dehydratase (Escherichia coli K-12); test: Tested for inhibitory activity against type I dehydroquinase; active
[3] = target: T2, 3-dehydroquinate dehydratase (Escherichia coli K-12, UniProt P05194); test: Tested for the binding affinity against dehydroquinase
T2 sequence (P05194 whole entry): T1 sequence (whole entry)

[4] = target: T1, 3-dehydroquinate dehydratase (Escherichia coli K-12); test: Tested for percent inactivation against dehydroquinase after 24 hr at 10 mM

O=C1C(O)C(O)CC(O)(C(=O)O)C1F (centres undefined)
k cat/Km [1]: 86000 M⁻¹ s⁻¹ | Activity [2]: Active | pKi [3]: 4.10 | Inactivation [4]: 45%

O=C(O)C1=C(Br)C(=O)[C@@H](O)[C@H](O)C1
Activity [2]: Active

O=C1C(O)C(O)CC(O)(C(=O)O)C1Br (centres undefined)
k cat/Km [1]: 367000 M⁻¹ s⁻¹ | Activity [2]: Active | pKi [3]: 2.43 | Inactivation [4]: 70%
